Measurements: PubChem BioAssay AID2060888 (Molecular Pharmacology Branch, DTP, NCI, 2025)
pIC50: −log10 of the molar value.

Tested on: 695427-040-R-J1-PDC complex spheroid viability
Assay: Anticancer human tumor 695427-040-R-J1-PDC patient-derived colon adenocarcinoma cell line growth inhibition [RAS]
Conditions: for pIC50: curve of first compound; for viability, T/C: stronger effect = lower value; active = viability on the fitted dose curve at most 10% of control; inactive = the rest
Method in brief: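 Tumour cells grown as complex spheroids with HUVEC endothelial cells and mesenchymal stem cells, treated with RAS pathway inhibitor combinations. Each agent spans half-log steps from near clinical Cmax, or 10 microM where Cmax is unknown.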

[1] = second compound 0.000949 µM, first compound 0.00316 µM
[2] = second compound 0.000949 µM, first compound 0.01 µM
[3] = second compound 0.000949 µM, first compound 0.0316 µM
[4] = second compound 0.000949 µM, first compound 0.1 µM
[5] = second compound 0.000949 µM, first compound 0.316 µM
[6] = second compound 0.000949 µM, first compound 1 µM
[7] = second compound 0.003 µM, first compound 0.00316 µM
[8] = second compound 0.003 µM, first compound 0.01 µM
[9] = second compound 0.003 µM, first compound 0.0316 µM
[10] = second compound 0.003 µM, first compound 0.1 µM
[11] = second compound 0.003 µM, first compound 0.316 µM
[12] = second compound 0.003 µM, first compound 1 µM
[13] = second compound 0.00949 µM, first compound 0.00316 µM
[14] = second compound 0.00949 µM, first compound 0.01 µM
[15] = second compound 0.00949 µM, first compound 0.0316 µM
[16] = second compound 0.00949 µM, first compound 0.1 µM
[17] = second compound 0.00949 µM, first compound 0.316 µM
[18] = second compound 0.00949 µM, first compound 1 µM
[19] = second compound 0.03 µM, first compound 0.00316 µM
[20] = second compound 0.03 µM, first compound 0.01 µM
[21] = second compound 0.03 µM, first compound 0.0316 µM
[22] = second compound 0.03 µM, first compound 0.1 µM
[23] = second compound 0.03 µM, first compound 0.316 µM
[24] = second compound 0.03 µM, first compound 1 µM
[25] = second compound 0.0949 µM, first compound 0.00316 µM
[26] = second compound 0.0949 µM, first compound 0.01 µM
[27] = second compound 0.0949 µM, first compound 0.0316 µM
[28] = second compound 0.0949 µM, first compound 0.1 µM
[29] = second compound 0.0949 µM, first compound 0.316 µM
[30] = second compound 0.0949 µM, first compound 1 µM
[31] = second compound 0.3 µM, first compound 0.00316 µM
[32] = second compound 0.3 µM, first compound 0.01 µM
[33] = second compound 0.3 µM, first compound 0.0316 µM
[34] = second compound 0.3 µM, first compound 0.1 µM
[35] = second compound 0.3 µM, first compound 0.316 µM
[36] = second compound 0.3 µM, first compound 1 µM
[37] = second compound 0.000949 µM, first compound 0.000949 µM
[38] = second compound 0.000949 µM, first compound 0.003 µM
[39] = second compound 0.000949 µM, first compound 0.00949 µM
[40] = second compound 0.000949 µM, first compound 0.03 µM
[41] = second compound 0.000949 µM, first compound 0.0949 µM
[42] = second compound 0.000949 µM, first compound 0.3 µM
[43] = second compound 0.003 µM, first compound 0.000949 µM
[44] = second compound 0.003 µM, first compound 0.003 µM
[45] = second compound 0.003 µM, first compound 0.00949 µM
[46] = second compound 0.003 µM, first compound 0.03 µM
[47] = second compound 0.003 µM, first compound 0.0949 µM
[48] = second compound 0.003 µM, first compound 0.3 µM
[49] = second compound 0.00949 µM, first compound 0.000949 µM
[50] = second compound 0.00949 µM, first compound 0.003 µM
[51] = second compound 0.00949 µM, first compound 0.00949 µM
[52] = second compound 0.00949 µM, first compound 0.03 µM
[53] = second compound 0.00949 µM, first compound 0.0949 µM
[54] = second compound 0.00949 µM, first compound 0.3 µM
[55] = second compound 0.03 µM, first compound 0.000949 µM
[56] = second compound 0.03 µM, first compound 0.003 µM
[57] = second compound 0.03 µM, first compound 0.00949 µM
[58] = second compound 0.03 µM, first compound 0.03 µM
[59] = second compound 0.03 µM, first compound 0.0949 µM
[60] = second compound 0.03 µM, first compound 0.3 µM
[61] = second compound 0.0949 µM, first compound 0.000949 µM
[62] = second compound 0.0949 µM, first compound 0.003 µM
[63] = second compound 0.0949 µM, first compound 0.00949 µM
[64] = second compound 0.0949 µM, first compound 0.03 µM
[65] = second compound 0.0949 µM, first compound 0.0949 µM
[66] = second compound 0.0949 µM, first compound 0.3 µM
[67] = second compound 0.3 µM, first compound 0.000949 µM
[68] = second compound 0.3 µM, first compound 0.003 µM
[69] = second compound 0.3 µM, first compound 0.00949 µM
[70] = second compound 0.3 µM, first compound 0.03 µM
[71] = second compound 0.3 µM, first compound 0.0949 µM
[72] = second compound 0.3 µM, first compound 0.3 µM
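Also: viability read after seven days of drug exposure.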
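For viability, T/C in this document: 100% = DMSO vehicle control viability.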

C=CC(=O)N1CCN(c2nc(OCC3CCCN3C)nc3c(F)c(-c4nc(N)cc(C)c4C(F)(F)F)c(Cl)cc23)C(C)C1 (stereo not drawn) + CCn1c(-c2cc(N3CCN(C)CC3)cnc2C(C)OC)c2c3cc(ccc31)-c1csc(n1)CC(NC(=O)C1CC1C)C(=O)N1CCCC(N1)C(=O)OCC(C)(C)C2
< 6.00: pIC50 (second compound 0.000949 µM) | pIC50 (second compound 0.003 µM) | pIC50 (second compound 0.00949 µM) | pIC50 (second compound 0.03 µM)
inactive: viability, T/C [1] 91.6% | viability, T/C [2] 115% | viability, T/C [3] 99.4% | viability, T/C [4] 94.1% | viability, T/C [5] 110% | viability, T/C [6] 90% | viability, T/C [7] 92.3% | viability, T/C [8] 99.9% | viability, T/C [9] 85.7% | viability, T/C [10] 85% | viability, T/C [11] 98.9% | viability, T/C [12] 85.5% | viability, T/C [13] 94% | viability, T/C [14] 69.2% | viability, T/C [15] 81.2% | viability, T/C [16] 75.3% | viability, T/C [17] 76.4% | viability, T/C [18] 69.1% | viability, T/C [19] 69.5% | viability, T/C [20] 63.7% | viability, T/C [21] 57% | viability, T/C [22] 55.5% | viability, T/C [23] 56.3% | viability, T/C [24] 59% | viability, T/C [25] 52.3% | viability, T/C [26] 47.7% | viability, T/C [27] 42.3% | viability, T/C [28] 42.8% | viability, T/C [29] 47.1% | viability, T/C [30] 45.1% | viability, T/C [31] 39.2% | viability, T/C [32] 34.7% | viability, T/C [33] 42.7% | viability, T/C [34] 38% | viability, T/C [35] 36.8% | viability, T/C [36] 37.1%
> 8.50: pIC50 (second compound 0.0949 µM) | pIC50 (second compound 0.3 µM)

CC1(C)CCC(Nc2ncc(C(F)(F)F)c(-c3c[nH]c4c(P(C)(C)=O)c(C#N)ccc34)n2)CN1 (stereo not drawn) + CCn1c(-c2cc(N3CCN(C)CC3)cnc2C(C)OC)c2c3cc(ccc31)-c1csc(n1)CC(NC(=O)C1CC1C)C(=O)N1CCCC(N1)C(=O)OCC(C)(C)C2
inactive: viability, T/C [37] 98% | viability, T/C [38] 101% | viability, T/C [39] 84% | viability, T/C [40] 92.2% | viability, T/C [41] 91.8% | viability, T/C [42] 77.6% | viability, T/C [43] 94.8% | viability, T/C [44] 85.5% | viability, T/C [45] 77.9% | viability, T/C [46] 77.2% | viability, T/C [47] 80.6% | viability, T/C [48] 69.3% | viability, T/C [49] 71.4% | viability, T/C [50] 65.6% | viability, T/C [51] 74.2% | viability, T/C [52] 61.7% | viability, T/C [53] 62.8% | viability, T/C [54] 63.6% | viability, T/C [55] 67.4% | viability, T/C [56] 60.7% | viability, T/C [57] 61% | viability, T/C [58] 58.5% | viability, T/C [59] 55.4% | viability, T/C [60] 51.4% | viability, T/C [61] 47.5% | viability, T/C [62] 44.3% | viability, T/C [63] 47.9% | viability, T/C [64] 47.4% | viability, T/C [65] 45.6% | viability, T/C [66] 40.3% | viability, T/C [67] 34.7% | viability, T/C [68] 41.8% | viability, T/C [69] 31.7% | viability, T/C [70] 36.4% | viability, T/C [71] 36.6% | viability, T/C [72] 33.4%
> 9.02: pIC50 (second compound 0.0949 µM) | pIC50 (second compound 0.3 µM)
< 6.52: pIC50 (second compound 0.000949 µM) | pIC50 (second compound 0.003 µM) | pIC50 (second compound 0.00949 µM) | pIC50 (second compound 0.03 µM)

CCc1c2c(nc3ccc(O)cc13)-c1cc3c(c(=O)n1C2)COC(=O)[C@]3(O)CC + CCn1c(-c2cc(N3CCN(C)CC3)cnc2C(C)OC)c2c3cc(ccc31)-c1csc(n1)CC(NC(=O)C1CC1C)C(=O)N1CCCC(N1)C(=O)OCC(C)(C)C2
> 9.02: pIC50 (second compound 0.0949 µM) | pIC50 (second compound 0.3 µM)
6.97: pIC50 (second compound 0.000949 µM)
8.11: pIC50 (second compound 0.03 µM)
7.14: pIC50 (second compound 0.003 µM)
inactive: viability, T/C [37] 88.8% | viability, T/C [38] 87% | viability, T/C [39] 75.6% | viability, T/C [40] 61.8% | viability, T/C [41] 55.4% | viability, T/C [42] 33.7% | viability, T/C [43] 103% | viability, T/C [44] 86.1% | viability, T/C [45] 66% | viability, T/C [46] 63.6% | viability, T/C [47] 48% | viability, T/C [48] 36.3% | viability, T/C [49] 82.3% | viability, T/C [50] 64% | viability, T/C [51] 65% | viability, T/C [52] 57.8% | viability, T/C [53] 50% | viability, T/C [54] 26.6% | viability, T/C [55] 59.2% | viability, T/C [56] 51.6% | viability, T/C [57] 55.3% | viability, T/C [58] 35.3% | viability, T/C [59] 41.6% | viability, T/C [60] 27.9% | viability, T/C [61] 45.2% | viability, T/C [62] 41.7% | viability, T/C [63] 46.7% | viability, T/C [64] 31.8% | viability, T/C [65] 30.7% | viability, T/C [66] 20.5% | viability, T/C [67] 38.1% | viability, T/C [68] 37.6% | viability, T/C [69] 28.2% | viability, T/C [70] 30.8% | viability, T/C [71] 23.8% | viability, T/C [72] 16.9%
7.25: pIC50 (second compound 0.00949 µM)

C=CC(=O)Nc1cc(Nc2nccc(-c3cn(C)c4ccccc34)n2)c(OC)cc1N(C)CCN(C)C + CCn1c(-c2cccnc2C(C)OC)c2c3cc(ccc31)N1CCOC(CC(NC(=O)C(C(C)C)N(C)C(=O)C3(F)CCN(C(=O)C#CC(C)(C)N(C)C)CC3)C(=O)N3CCCC(N3)C(=O)OCC(C)(C)C2)C1
inactive: viability, T/C [1] 85.2% | viability, T/C [2] 80.6% | viability, T/C [3] 73.5% | viability, T/C [4] 100% | viability, T/C [5] 60.9% | viability, T/C [6] 38.5% | viability, T/C [7] 91.3% | viability, T/C [8] 83.4% | viability, T/C [9] 95.2% | viability, T/C [10] 114% | viability, T/C [11] 59.7% | viability, T/C [12] 40.8% | viability, T/C [13] 94.1% | viability, T/C [14] 70.7% | viability, T/C [15] 87.6% | viability, T/C [16] 82.2% | viability, T/C [17] 56.3% | viability, T/C [18] 36.1% | viability, T/C [19] 80.9% | viability, T/C [20] 88% | viability, T/C [21] 84.5% | viability, T/C [22] 73% | viability, T/C [23] 60.6% | viability, T/C [24] 42.1% | viability, T/C [25] 106% | viability, T/C [26] 83.3% | viability, T/C [27] 84.5% | viability, T/C [28] 80.2% | viability, T/C [29] 67.7% | viability, T/C [30] 31.5% | viability, T/C [31] 74.5% | viability, T/C [32] 74.9% | viability, T/C [33] 85.7% | viability, T/C [34] 52.8% | viability, T/C [35] 54.2% | viability, T/C [36] 32.3%
6.24: pIC50 (second compound 0.003 µM)
6.22: pIC50 (second compound 0.03 µM)
6.54: pIC50 (second compound 0.3 µM)
6.34: pIC50 (second compound 0.00949 µM)
6.28: pIC50 (second compound 0.0949 µM)
6.26: pIC50 (second compound 0.000949 µM)
